Several values for one entry are separate records, joined by “and”; a condition that tells them apart may be missing. Equal entries are not always repeated. After the bases stand the sugars from the 5' end (letter, count) and the backbone: PS all phosphorothioate, else s phosphorothioate and o phosphodiester by linkage. Methylation of C is not given here. e = 2'-O-(2-methoxyethyl) (MOE); k = constrained ethyl (cEt); d = 2'-deoxy (DNA)
Target: IRF4
Conditions: ASO

For GCTGTTTATTTCCTAC (sugars k3 d10 k3, PS), the target mRNA inhibition (SK-MEL-28, 4 µM) was 66%.
For GCTTGAGGTTTTCCTA (sugars k3 d10 k3, PS), the target mRNA inhibition (SK-MEL-28, 4 µM) was 77%.
GGAAAGAGCTTTGGTG (sugars k3 d10 k3, PS) gave a target mRNA inhibition (SK-MEL-28, 4 µM) of 12%.
GGAAATACGACAACTT (sugars k3 d10 k3, PS) gave a target mRNA inhibition (SK-MEL-28, 4 µM) of 63%.
GGAACGAAGAGCAGGG (sugars k3 d10 k3, PS) gave a target mRNA inhibition (MM.1R, 1 µM) of 12%.
Sequence GGAACTCCCGAGGGCA (sugars k3 d10 k3, PS) has a target mRNA inhibition (MM.1R, 1 µM) of 13%.
With “GGAAGTTTACACTGGA (sugars e1 k2 d9 k2 e2, PS)” the target mRNA inhibition (H929, 0.04 µM) was 38% and 36%, the target mRNA inhibition (KMS11, 0.2 µM) was 75% and 80% and the target mRNA inhibition (MM.1R, 0.074 µM) was 13%. It also gave a target mRNA inhibition (MM.1R, 0.222 µM) of 35%, a target mRNA inhibition (MM.1R, 0.666 µM) of 66% and a target mRNA inhibition (MM.1R, 1 µM) of 55%. For the same sequence, the target mRNA inhibition (MM.1R, 2 µM) was 87%.
With “GGAAGTTTACACTGGA (sugars k3 d9 k3 e1, PS)” the target mRNA inhibition (MM.1R, 0.074 µM) was 20%, the target mRNA inhibition (MM.1R, 0.222 µM) was 45% and the target mRNA inhibition (MM.1R, 0.666 µM) was 77%. For the same sequence, the target mRNA inhibition (MM.1R, 1 µM) was 78% and the target mRNA inhibition (MM.1R, 2 µM) was 91%.
“GGAAGTTTACACTGGA (sugars kkdddddddddekeke, PS)” was tested, and the target mRNA inhibition (MM.1R, 0.074 µM) was 4%, the target mRNA inhibition (MM.1R, 0.222 µM) was 15% and the target mRNA inhibition (MM.1R, 0.666 µM) was 40%. For the same sequence, the target mRNA inhibition (MM.1R, 1 µM) was 64% and the target mRNA inhibition (MM.1R, 2 µM) was 64%.
Sequence “GGAAGTTTACACTGGA (sugars kkdddddddddkdkdk, PS)” has a target mRNA inhibition (MM.1R, 1 µM) of 24%.
“GGAAGTTTACACTGGA (sugars kkdddddddddkekek, PS)” was tested, and the target mRNA inhibition (MM.1R, 1 µM) was 47%.
“GGAAGTTTACACTGGA (sugars kkkdddddddddkeke, PS)” gave a target mRNA inhibition (MM.1R, 0.074 µM) of 22%, a target mRNA inhibition (MM.1R, 0.222 µM) of 46% and a target mRNA inhibition (MM.1R, 0.666 µM) of 74%. For the same sequence, the target mRNA inhibition (MM.1R, 1 µM) was 78% and the target mRNA inhibition (MM.1R, 2 µM) was 91%.
“GGAAGTTTACACTGGA (sugars kkkddddddddkekek, PS)” showed a target mRNA inhibition (MM.1R, 1 µM) of 43%.
Work on GGACACTTTTAGAGAG (sugars k3 d10 k3, PS) yielded a target mRNA inhibition (SK-MEL-28, 4 µM) of 62%.
Work on GGACATTGGTACGGGA (sugars k3 d10 k3, PS) yielded a target mRNA inhibition (SK-MEL-28, 4 µM) of 50%.
Work on GGACCACATCTAATCC (sugars k3 d10 k3, PS) yielded a target mRNA inhibition (MM.1R, 1 µM) of -12%.
For GGACTAAGGACAGCTG (sugars k3 d10 k3, PS), the target mRNA inhibition (MM.1R, 1 µM) was 13%.
In the case of GGACTCCGGGAGCCTG (sugars k3 d10 k3, PS), the target mRNA inhibition (MM.1R, 1 µM) is reported as -8%.
Sequence GGAGACACATACATTT (sugars k3 d10 k3, PS) has a target mRNA inhibition (SK-MEL-28, 4 µM) of 22%.
Sequence GGAGATACTTGTACTG (sugars k3 d10 k3, PS) has a target mRNA inhibition (MM.1R, 0.0625 µM) of 2%, a target mRNA inhibition (MM.1R, 0.074 µM) of 16% and a target mRNA inhibition (MM.1R, 0.222 µM) of 25%. It also gave a target mRNA inhibition (MM.1R, 0.25 µM) of 26%, a target mRNA inhibition (MM.1R, 0.666 µM) of 48% and a target mRNA inhibition (MM.1R, 1 µM) of 55%. For the same sequence, the target mRNA inhibition (MM.1R, 2 µM) was 77%, the target mRNA inhibition (MM.1R, 4 µM) was 87% and the target mRNA inhibition (SK-MEL-28, 4 µM) was 66%.
For GGAGTGATCTCTGTGG (sugars k3 d10 k3, PS), the target mRNA inhibition (SK-MEL-28, 4 µM) was 68%.
GGAGTGCAGGAGAGGC (sugars k3 d10 k3, PS) gave a target mRNA inhibition (SK-MEL-28, 4 µM) of 16%.
For GGATAGATCTGTGGTA (sugars k3 d10 k3, PS), the target mRNA inhibition (SK-MEL-28, 4 µM) was 49%.
With GGATTTCCGGGTGTGG (sugars k3 d10 k3, PS) the target mRNA inhibition (SK-MEL-28, 4 µM) was 61%.
GGCAACAGTTCAAGTA (sugars k3 d10 k3, PS) gave a target mRNA inhibition (SK-MEL-28, 4 µM) of 57%.
In the case of GGCACAATTCTCTGAG (sugars k3 d10 k3, PS), the target mRNA inhibition (SK-MEL-28, 4 µM) is reported as 43%.
GGCACATCAATGTTTT (sugars k3 d10 k3, PS) was tested, and the target mRNA inhibition (MM.1R, 1 µM) was 18% and 14%.
For “GGCACATCAATGTTTT (sugars kdddddddddkekeke, PS)”, the target mRNA inhibition (MM.1R, 1 µM) was 9% and 6%.
For GGCACATGAGAAATCA (sugars k3 d10 k3, PS), the target mRNA inhibition (SK-MEL-28, 4 µM) was 33%.
With GGCAGTTGTGCCGTCT (sugars k3 d10 k3, PS) the target mRNA inhibition (MM.1R, 1 µM) was -17%.
GGCATACAGTGTGATT (sugars k3 d10 k3, PS) gave a target mRNA inhibition (SK-MEL-28, 4 µM) of 25%.
GGCCCTGTCAAACTAT (sugars k3 d10 k3, PS) gave a target mRNA inhibition (SK-MEL-28, 4 µM) of 40%.
GGCCTCCCCAAGGCTA (sugars k3 d10 k3, PS) showed a target mRNA inhibition (SK-MEL-28, 4 µM) of 18%.
For GGCCTCTGAGCAGAAC (sugars k3 d10 k3, PS), the target mRNA inhibition (SK-MEL-28, 4 µM) was 27%.
GGCCTGAAGCTTAGTT (sugars k3 d10 k3, PS) was tested, and the target mRNA inhibition (MM.1R, 1 µM) was -5% and 6%.
GGCGAGTGGCGGGTAG (sugars k3 d10 k3, PS) gave a target mRNA inhibition (SK-MEL-28, 4 µM) of 8%.
Work on GGCTAAACCTGGCACC (sugars k3 d10 k3, PS) yielded a target mRNA inhibition (SK-MEL-28, 4 µM) of 40%.
For GGCTACAGGCACGGCT (sugars k3 d10 k3, PS), the target mRNA inhibition (SK-MEL-28, 4 µM) was 42%.
With GGCTAGCAGAGGTTCT (sugars k3 d10 k3, PS) the target mRNA inhibition (SK-MEL-28, 4 µM) was 51%.
Work on GGCTAGCTGTATTTAT (sugars k3 d10 k3, PS) yielded a target mRNA inhibition (SK-MEL-28, 4 µM) of 37%.
GGCTCCCTCAGGAACA (sugars k3 d10 k3, PS) gave a target mRNA inhibition (SK-MEL-28, 4 µM) of 19%.
In the case of GGCTCCTACATGTTTG (sugars k3 d10 k3, PS), the target mRNA inhibition (SK-MEL-28, 4 µM) is reported as -46%.
GGCTCTTGATGTGAAC (sugars k3 d10 k3, PS) was tested, and the target mRNA inhibition (MM.1R, 1 µM) was -12%.
In the case of GGGAATCCCTTATTAG (sugars k3 d10 k3, PS), the target mRNA inhibition (MM.1R, 1 µM) is reported as 0%.
In the case of GGGAGAGCGGAGGCGG (sugars k3 d10 k3, PS), the target mRNA inhibition (SK-MEL-28, 4 µM) is reported as 22%.
With GGGATTCCGCGCGCAG (sugars k3 d10 k3, PS) the target mRNA inhibition (SK-MEL-28, 4 µM) was 14%.
GGGCAACTTTAACCAT (sugars k3 d10 k3, PS) was tested, and the target mRNA inhibition (SK-MEL-28, 4 µM) was 8%.
GGGCATGTGACTGGAG (sugars k3 d10 k3, PS) showed a target mRNA inhibition (SK-MEL-28, 4 µM) of 50%.
In the case of GGGCCCCGTGAAACAG (sugars k3 d10 k3, PS), the target mRNA inhibition (SK-MEL-28, 4 µM) is reported as 33%.
GGGTAGAGCAGCTCCC (sugars k3 d10 k3, PS) gave a target mRNA inhibition (MM.1R, 1 µM) of -16%.
For GGGTGCTCTTACAGCC (sugars k3 d10 k3, PS), the target mRNA inhibition (MM.1R, 1 µM) was -2%.
Work on GGGTGGCATCATGTAG (sugars k3 d10 k3, PS) yielded a target mRNA inhibition (MM.1R, 1 µM) of 27%.
In the case of GGGTTAAATATTCTTC (sugars k3 d10 k3, PS), the target mRNA inhibition (SK-MEL-28, 4 µM) is reported as 52%.
GGTAAGATCTCCATGG (sugars k3 d10 k3, PS) was tested, and the target mRNA inhibition (SK-MEL-28, 4 µM) was 45%.
GGTCACTTGGTTCTCT (sugars k3 d10 k3, PS) gave a target mRNA inhibition (SK-MEL-28, 4 µM) of 79%.
With GGTCAGAATCTTGAAA (sugars k3 d10 k3, PS) the target mRNA inhibition (SK-MEL-28, 4 µM) was 9%.
For GGTCTGGAAACTCCTC (sugars k3 d10 k3, PS), the target mRNA inhibition (MM.1R, 0.074 µM) was 13%, the target mRNA inhibition (MM.1R, 0.222 µM) was 14% and the target mRNA inhibition (MM.1R, 0.666 µM) was 12%. For the same sequence, the target mRNA inhibition (MM.1R, 2 µM) was 17%, the target mRNA inhibition (SK-MEL-28, 0.185 µM) was 1% and the target mRNA inhibition (SK-MEL-28, 4 µM) was 52%. It also gave a target mRNA inhibition (SK-MEL-28, 5 µM) of 63% and a target mRNA inhibition (SK-MEL-28, 15 µM) of 86%.
Work on GGTCTGGAAACTCCTC (sugars k4 d8 k4, PS) yielded a target mRNA inhibition (SK-MEL-28, 4 µM) of 31%.
In the case of GGTGCTCCTAAATCAC (sugars k3 d10 k3, PS), the target mRNA inhibition (MM.1R, 1 µM) is reported as -1%.
With GGTTGGCTGGTCTTTG (sugars k3 d10 k3, PS) the target mRNA inhibition (MM.1R, 0.0625 µM) was -2% and 15%, the target mRNA inhibition (MM.1R, 0.25 µM) was 16% and 20% and the target mRNA inhibition (MM.1R, 1 µM) was 49% and 35%. For the same sequence, the target mRNA inhibition (MM.1R, 4 µM) was 66% and 70%.
In the case of “GGTTGGCTGGTCTTTG (sugars kkdddddddddkekek, PS)”, the target mRNA inhibition (MM.1R, 0.0625 µM) is reported as 34%, the target mRNA inhibition (MM.1R, 0.25 µM) is reported as 44% and the target mRNA inhibition (MM.1R, 1 µM) is reported as 67% and 63%. The target mRNA inhibition (MM.1R, 4 µM) was 82%.
In the case of GGTTTCAGTTGTAAAT (sugars k3 d10 k3, PS), the target mRNA inhibition (SK-MEL-28, 4 µM) is reported as 58%.
In the case of GTAAAACATAACTTAC (sugars k3 d10 k3, PS), the target mRNA inhibition (SK-MEL-28, 4 µM) is reported as 8%.
Work on GTAAACTGAAAGACCC (sugars k3 d10 k3, PS) yielded a target mRNA inhibition (SK-MEL-28, 4 µM) of 35%.
Work on GTAAGGGCTGCTCATT (sugars k3 d10 k3, PS) yielded a target mRNA inhibition (SK-MEL-28, 4 µM) of 52%.
GTAATCTTCTGGATTG (sugars k3 d10 k3, PS) was tested, and the target mRNA inhibition (SK-MEL-28, 4 µM) was 29%.
GTAATTTTAAGGCCCT (sugars k3 d10 k3, PS) gave a target mRNA inhibition (SK-MEL-28, 4 µM) of 55%.
